The record followed here is US20090270394A1, “CYCLYLAMINE DERIVATIVES AS CALCIUM CHANNEL BLOCKERS” (priority 2008, published 2009).

For this assay, the target named is T1, Human Cav2.2 channels (Homo sapiens, UniProt Q00975).
T1 construct: expressed in transfected cells
Description: Fluorescent assay for Cav2.2 channels using potassium depolarization to initiate channel opening. The format is cell-based. The following applies: for inhibition at 10 µM: 10 μM compound, read-out: Cav 2.2 Activity % Inh at 10 μM; for inhibition at 30 µM: 30 μM compound, read-out: Cav 2.2 Activity % Inh at 30 μM; for IC50: 30 mM K (block of open and inactivated channels), read-out: Cav 2.2 Activity IC50 at 30 mM K. From the text:
Human Cav2.2 channels were stably expressed in HEK293 cells along with alpha2-delta and beta subunits of voltage-gated calcium channels. An inwardly rectifying potassium channel (Kir2.3) was also expressed in these cells to allow more precise control of the cell membrane potential by extracellular potassium concentration. At low bath potassium concentration, the membrane potential is relatively negative, and is depolarized as the bath potassium concentration is raised. In this way, the bath potassium concentration can be used to regulate the voltage-dependent conformations of the channels. […] After the incubation period, Cav2.2 channel opening is triggered by addition of higher concentration of potassium (70 mM final concentration) to further depolarize the cell. The degree of state-dependent block can be estimated from the inhibitory potency of compounds after incubation in different potassium concentrations.
Calcium influx through Cav2.2 channels is determined using a calcium sensitive fluorescent dye in combination with a fluorescent plate reader. Fluorescent changes were measured with either a VIPR (Aurora Instruments) or FLIPR (Molecular Devices) plate reader.
• 1. Seed cells in Poly-D-Lysine Coated 96 or 384-well plate and keep in a 37° C.-10% CO2 incubator overnight • 2. […] Incubate in the dark at 25° C. for 60-70 min • 5. Remove dye, wash cells with 0.1 mL (96-well plate) or 0.06 mL (384-well plate) of 4, 12, 25, or 30 mM Potassium Pre-polarization Buffer (PPB) • 6. […] Incubate in the dark at 25° C. for 30 min • 8. Read cell plate on VIPR instrument, Excitation=480 nm, Emission=535 nm • 9. With VIPR continuously reading, add 0.1 mL (96-well plate) or 0.03 mL (384-well plate) of Depolarization Buffer (DB), which is 2× the final assay concentration, to the cell plate.

T1 sequence (Q00975 whole entry): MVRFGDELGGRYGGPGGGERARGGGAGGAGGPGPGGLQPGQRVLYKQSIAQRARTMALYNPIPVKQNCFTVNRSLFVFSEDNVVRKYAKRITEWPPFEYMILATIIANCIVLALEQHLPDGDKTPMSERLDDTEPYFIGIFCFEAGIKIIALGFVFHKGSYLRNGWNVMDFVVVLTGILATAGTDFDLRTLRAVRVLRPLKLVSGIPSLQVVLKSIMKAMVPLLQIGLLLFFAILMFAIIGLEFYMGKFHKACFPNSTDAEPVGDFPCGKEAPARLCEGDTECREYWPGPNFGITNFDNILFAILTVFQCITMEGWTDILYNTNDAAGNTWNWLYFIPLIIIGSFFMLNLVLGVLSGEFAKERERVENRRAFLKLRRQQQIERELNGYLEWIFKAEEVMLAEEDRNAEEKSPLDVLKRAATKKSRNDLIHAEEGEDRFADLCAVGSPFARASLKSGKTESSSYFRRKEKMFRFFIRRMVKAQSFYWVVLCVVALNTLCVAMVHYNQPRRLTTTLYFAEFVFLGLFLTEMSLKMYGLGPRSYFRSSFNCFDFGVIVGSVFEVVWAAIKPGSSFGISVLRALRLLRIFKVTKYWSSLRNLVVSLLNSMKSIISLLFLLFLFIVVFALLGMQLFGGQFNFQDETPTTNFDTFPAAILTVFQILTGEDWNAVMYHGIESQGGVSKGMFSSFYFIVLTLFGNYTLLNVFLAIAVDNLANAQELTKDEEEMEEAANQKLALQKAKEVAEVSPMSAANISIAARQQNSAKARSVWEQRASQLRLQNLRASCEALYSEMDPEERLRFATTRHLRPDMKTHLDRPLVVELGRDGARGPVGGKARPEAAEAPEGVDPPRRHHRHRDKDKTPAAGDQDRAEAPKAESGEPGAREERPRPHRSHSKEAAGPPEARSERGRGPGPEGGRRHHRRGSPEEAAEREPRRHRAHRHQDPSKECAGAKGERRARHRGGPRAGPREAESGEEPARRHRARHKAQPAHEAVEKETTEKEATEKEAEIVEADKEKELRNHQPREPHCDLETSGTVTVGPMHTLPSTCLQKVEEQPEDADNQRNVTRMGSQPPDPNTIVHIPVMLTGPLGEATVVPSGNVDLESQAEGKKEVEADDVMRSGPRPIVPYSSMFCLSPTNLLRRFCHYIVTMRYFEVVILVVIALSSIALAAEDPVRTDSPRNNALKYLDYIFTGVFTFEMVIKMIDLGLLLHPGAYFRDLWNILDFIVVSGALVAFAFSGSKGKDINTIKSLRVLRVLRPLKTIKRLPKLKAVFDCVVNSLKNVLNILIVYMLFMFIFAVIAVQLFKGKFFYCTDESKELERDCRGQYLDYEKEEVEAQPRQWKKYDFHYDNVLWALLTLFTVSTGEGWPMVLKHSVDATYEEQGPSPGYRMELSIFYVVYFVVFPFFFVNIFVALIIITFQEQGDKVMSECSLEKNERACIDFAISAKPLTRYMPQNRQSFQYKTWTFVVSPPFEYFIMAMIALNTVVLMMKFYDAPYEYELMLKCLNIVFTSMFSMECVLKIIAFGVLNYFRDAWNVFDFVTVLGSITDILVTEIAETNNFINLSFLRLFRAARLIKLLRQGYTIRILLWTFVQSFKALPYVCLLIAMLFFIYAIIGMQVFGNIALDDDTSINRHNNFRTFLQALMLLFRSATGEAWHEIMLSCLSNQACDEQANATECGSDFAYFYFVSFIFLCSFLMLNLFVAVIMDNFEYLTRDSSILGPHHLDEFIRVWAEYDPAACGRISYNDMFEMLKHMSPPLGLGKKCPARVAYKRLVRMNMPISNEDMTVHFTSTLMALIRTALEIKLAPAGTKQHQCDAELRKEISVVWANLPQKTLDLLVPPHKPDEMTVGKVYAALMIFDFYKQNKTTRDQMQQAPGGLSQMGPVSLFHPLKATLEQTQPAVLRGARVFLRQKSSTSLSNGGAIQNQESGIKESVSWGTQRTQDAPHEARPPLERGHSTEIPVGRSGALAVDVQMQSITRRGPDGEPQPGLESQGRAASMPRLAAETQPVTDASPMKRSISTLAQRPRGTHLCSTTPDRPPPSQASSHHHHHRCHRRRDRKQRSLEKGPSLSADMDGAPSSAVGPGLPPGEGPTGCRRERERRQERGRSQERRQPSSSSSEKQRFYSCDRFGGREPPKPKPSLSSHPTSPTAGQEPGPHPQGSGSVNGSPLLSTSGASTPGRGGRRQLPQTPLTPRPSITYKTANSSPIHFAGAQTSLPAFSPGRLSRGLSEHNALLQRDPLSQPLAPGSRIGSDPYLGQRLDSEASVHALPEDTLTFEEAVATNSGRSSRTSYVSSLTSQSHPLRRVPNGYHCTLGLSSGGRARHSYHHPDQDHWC
T1 sequence (P54289 25-1103 partner): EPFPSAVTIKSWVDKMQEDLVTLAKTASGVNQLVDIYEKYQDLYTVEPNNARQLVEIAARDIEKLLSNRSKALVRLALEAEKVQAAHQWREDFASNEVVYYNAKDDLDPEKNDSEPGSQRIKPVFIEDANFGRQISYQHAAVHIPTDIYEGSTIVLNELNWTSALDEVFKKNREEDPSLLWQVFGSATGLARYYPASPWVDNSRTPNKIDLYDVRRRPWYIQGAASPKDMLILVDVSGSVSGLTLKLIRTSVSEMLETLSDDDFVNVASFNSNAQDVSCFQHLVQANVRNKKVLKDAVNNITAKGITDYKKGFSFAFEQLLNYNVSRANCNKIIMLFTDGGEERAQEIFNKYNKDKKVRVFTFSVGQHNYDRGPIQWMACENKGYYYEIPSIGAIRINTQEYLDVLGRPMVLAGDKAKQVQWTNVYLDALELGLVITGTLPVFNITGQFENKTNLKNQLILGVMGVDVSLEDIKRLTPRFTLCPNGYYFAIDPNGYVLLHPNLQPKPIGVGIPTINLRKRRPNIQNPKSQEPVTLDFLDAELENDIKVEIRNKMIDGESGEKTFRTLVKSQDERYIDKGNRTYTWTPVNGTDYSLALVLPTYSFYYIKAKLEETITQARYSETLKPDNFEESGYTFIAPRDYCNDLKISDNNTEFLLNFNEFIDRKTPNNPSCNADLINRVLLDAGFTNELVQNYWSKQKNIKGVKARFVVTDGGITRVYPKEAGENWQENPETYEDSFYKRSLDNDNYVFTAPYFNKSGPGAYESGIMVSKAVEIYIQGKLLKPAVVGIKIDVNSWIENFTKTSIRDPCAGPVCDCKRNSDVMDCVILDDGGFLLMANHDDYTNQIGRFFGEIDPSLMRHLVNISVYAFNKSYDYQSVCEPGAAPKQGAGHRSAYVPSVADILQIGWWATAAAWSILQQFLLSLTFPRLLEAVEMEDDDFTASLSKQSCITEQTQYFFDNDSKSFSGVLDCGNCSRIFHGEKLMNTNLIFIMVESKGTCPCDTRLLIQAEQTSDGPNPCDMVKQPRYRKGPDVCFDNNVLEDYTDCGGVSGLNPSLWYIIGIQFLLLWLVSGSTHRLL
T1 sequence (P54284 whole entry partner): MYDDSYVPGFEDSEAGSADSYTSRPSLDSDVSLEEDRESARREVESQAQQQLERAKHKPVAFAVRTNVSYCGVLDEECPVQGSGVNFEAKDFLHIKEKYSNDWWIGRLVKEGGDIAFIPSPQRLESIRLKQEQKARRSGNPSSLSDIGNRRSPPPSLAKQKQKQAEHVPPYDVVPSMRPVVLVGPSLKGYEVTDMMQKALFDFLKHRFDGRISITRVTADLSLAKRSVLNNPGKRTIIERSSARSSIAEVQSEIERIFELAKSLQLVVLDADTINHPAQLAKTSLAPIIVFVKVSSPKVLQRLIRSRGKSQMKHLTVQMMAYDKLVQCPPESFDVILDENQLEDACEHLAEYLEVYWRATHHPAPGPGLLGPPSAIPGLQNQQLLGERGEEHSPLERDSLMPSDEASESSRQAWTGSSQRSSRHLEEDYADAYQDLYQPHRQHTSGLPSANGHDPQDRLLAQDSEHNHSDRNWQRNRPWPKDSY

For the compound `CC(C)(C)c1cc(C(=O)NC2(C(=O)NCc3ccc(NS(C)(=O)=O)cc3)CC2)cc(C(C)(C)C)c1O` [Compound 117, 3,5-di-tert-butyl-4-hydroxy-N-(1-(4-(methylsulfonamido)benzylcarbamoyl)cyclopropyl)benzamide], the inhibition at 10 µM worked out at 74.2%, the inhibition at 30 µM was 101% and the IC50 was determined as 1090 nM.

As for `CC(C)(C)c1cc(C(=O)NC2(C(=O)Nc3ccncc3)CCCCC2)cc(C(C)(C)C)c1` [Compound 75, 3,5-di-tert-butyl-N-(1-(pyridin-4-ylcarbamoyl)cyclohexyl)benzamide], the inhibition at 10 µM worked out at 93.6%, the inhibition at 30 µM stood at 101% and the IC50 amounted to 545 nM.

With `CC(C)(C)c1cc(C(=O)NC2(C(=O)NCc3ccc(S(C)(=O)=O)cc3)CCCCC2)cc(C(C)(C)C)n1` [Compound 106, 2,6-di-tert-butyl-N-(1-(4-(methylsulfonyl)benzylcarbamoyl)cyclohexyl)isonicotinamide], the IC50 was 317 nM.

For `CC(C)(C)c1cc(C(=O)NC2(C(=O)Nc3ccccc3)CCCCC2)cc(C(C)(C)C)c1O` [Compound 111, 3,5-di-tert-butyl-4-hydroxy-N-(1-(phenylcarbamoyl)cyclohexyl)benzamide], the inhibition at 10 µM worked out at 71.8%, the inhibition at 30 µM amounted to 106% and the IC50 was determined as 551 nM.

Take `CC(C)(C#N)c1cccc(C(=O)NC2(C(=O)NCc3cccc(C(F)(F)F)c3)CCCCC2)c1` [Compound 124, 3-(2-cyanopropan-2-yl)-N-(1-(3-(trifluoromethyl)benzylcarbamoyl)cyclohexyl)benzamide]: the inhibition at 10 µM amounted to 84.2%, the inhibition at 30 µM came to 74% and the IC50 turned out to be 810 nM.

With `COc1c(C(C)(C)C)cc(CNC(=O)C2(NC(=O)c3cccc(C(F)(F)F)c3)CCCCC2)cc1C(C)(C)C` [Compound 73, N-(1-(3,5-di-tert-butyl-4-methoxybenzylcarbamoyl)cyclohexyl)-3-(trifluoromethyl)benzamide], the inhibition at 10 µM came to 95.2%, the inhibition at 30 µM worked out at 97.7% and the IC50 was 124 nM.

As to `COc1ccc(CNC(=O)C2(NC(=O)c3cc(C(C)(C)C)cc(C(C)(C)C)c3)CCCC2)cc1` [Compound 37, 3,5-di-tert-butyl-N-(1-(4-methoxybenzylcarbamoyl)cyclopentyl)benzamide], the inhibition at 10 µM came out at 93%, the inhibition at 30 µM came out at 95.8% and the half-maximal inhibitory concentration (IC50) stood at 153 nM.

For `CN(C)c1ccc(CNC(=O)C2(NC(=O)c3cc(C(C)(C)C)nc(C(C)(C)C)c3)CCCCC2)cc1` [Compound 77, 2,6-di-tert-butyl-N-(1-(4-(dimethylamino)benzylcarbamoyl)cyclohexyl)isonicotinamide], the inhibition at 10 µM amounted to 48.7%, the inhibition at 30 µM amounted to 66.9% and the 50% inhibitory concentration (IC50) came to 574 nM.

As to `COc1c(C(C)(C)C)cc(CNC2(C(=O)NCc3cccc(C(F)(F)F)c3)CCCCC2)cc1C(C)(C)C` [Compound 71, 1-(3,5-di-tert-butyl-4-methoxybenzylamino)-N-(3-(trifluoromethyl)benzyl)cyclohexanecarboxamide], the inhibition at 10 µM was 77.3%, the inhibition at 30 µM came to 81.1% and the IC50 worked out at 477 nM.

For `COc1ccc(CNC(=O)C2(NC(=O)c3cc(C(C)(C)C)nc(C(C)(C)C)c3)CCOCC2)cc1` [Compound 113, 2,6-di-tert-butyl-N-(4-(4-methoxybenzylcarbamoyl)tetrahydro-2H-pyran-4-yl)isonicotinamide], the inhibition at 10 µM was found to be 79%, the inhibition at 30 µM was found to be 93% and the IC50 was 59.4 nM.

In the case of `CC(C)(C)c1cc(C(=O)NC2(C(=O)NCc3ccccn3)CC2)cc(C(C)(C)C)n1` [Compound 21, 2,6-di-tert-butyl-N-(1-(pyridin-2-ylmethylcarbamoyl)cyclopropyl)isonicotinamide], the inhibition at 10 µM was found to be 97.1% and the concentration for half-maximal inhibition (IC50) came to 143 nM.

For `Cc1cc(CNC(=O)C2(NC(=O)c3cc(C(C)(C)C)nc(C(C)(C)C)c3)CC2)no1` [Compound 9, 2,6-di-tert-butyl-N-(1-((5-methylisoxazol-3-yl)methylcarbamoyl)cyclopropyl)isonicotinamide], the inhibition at 10 µM came to 45.7% and the inhibition at 30 µM was 53.4%.

As to `CC(C)(C)c1cc(C(=O)NC2(C(=O)NCCCN3CCOCC3)CCCCC2)cc(C(C)(C)C)n1` [Compound 99, 2,6-di-tert-butyl-N-(1-(3-morpholinopropylcarbamoyl)cyclohexyl)isonicotinamide], the IC50 is 700 nM.

With `CC(C)(C)c1cc(C(=O)NC2(C(=O)NCc3ccc(Cl)cc3)CCCCC2)cc(C(C)(C)C)c1` [Compound 46, 3,5-di-tert-butyl-N-(1-(4-chlorobenzylcarbamoyl)cyclohexyl)benzamide], the inhibition at 10 µM was found to be 96.6%, the inhibition at 30 µM turned out to be 97.9% and the IC50 is 77.9 nM.

For the compound `CC(C)(C)c1cc(C(=O)NC2(C(=O)NCc3cccc(C(F)(F)F)c3)Cc3ccccc3C2)cc(C(C)(C)C)n1` [Compound 54, 2,6-di-tert-butyl-N-(2-(3-(trifluoromethyl)benzylcarbamoyl)-2,3-dihydro-1H-inden-2-yl)isonicotinamide], the inhibition at 10 µM was determined as 46.2% and the inhibition at 30 µM turned out to be 68.4%.

`COc1ccc(CNC(=O)C2(NC(=O)c3cc(C(C)(C)C)c(O)c(C(C)(C)C)c3)CCCCC2)cc1` [Compound 67, 3,5-di-tert-butyl-4-hydroxy-N-(1-(4-methoxybenzylcarbamoyl)cyclohexyl)benzamide]: the inhibition at 10 µM came to 94.4%, the inhibition at 30 µM is 98.6% and the IC50 is 20.6 nM.

As for `CC(C)(C)c1cc(C(=O)NC2(C(=O)Nc3cccc(C(F)(F)F)c3)CCOCC2)ccn1` [Compound 120, 2-tert-butyl-N-(4-(3-(trifluoromethyl)phenylcarbamoyl)tetrahydro-2H-pyran-4-yl)isonicotinamide], the inhibition at 10 µM was determined as 61.2%.

On to `CC(C)(C)c1cc(C(=O)NC2(C(=O)Nc3nc4ccccc4[nH]3)CC2)cc(C(C)(C)C)n1` [Compound 19, N-(1-(1H-benzo[d]imidazol-2-ylcarbamoyl)cyclopropyl)-2,6-di-tert-butylisonicotinamide], for which the inhibition at 10 µM was determined as 60.3%.

As to `COc1ccc(C(=O)NC2(C(=O)NCc3cccc(C(F)(F)F)c3)CCCCC2)cc1C(C)(C)C#N` [Compound 118, 3-(2-cyanopropan-2-yl)-4-methoxy-N-(1-(3-(trifluoromethyl)benzylcarbamoyl)cyclohexyl)benzamide], the inhibition at 10 µM turned out to be 75.4%, the inhibition at 30 µM was determined as 77.6% and the half-maximal inhibitory concentration (IC50) was determined as 388 nM.

In the case of `Cc1cc(CNC(=O)C2(NC(=O)c3cc(C(C)(C)C)c(O)c(C(C)(C)C)c3)CCCCC2)nn1C` [Compound 8, 3,5-di-tert-butyl-N-(1-((1,5-dimethyl-1H-pyrazol-3-yl)methylcarbamoyl)cyclohexyl)-4-hydroxybenzamide], the inhibition at 10 µM stood at 100%, the inhibition at 30 µM stood at 99% and the half-inhibitory concentration (IC50) stood at 129 nM.

For `N#CCc1cc(CC#N)cc(C(=O)NC2(C(=O)NCc3cccc(C(F)(F)F)c3)CCCCC2)c1` [Compound 61, 3,5-bis(cyanomethyl)-N-(1-(3-(trifluoromethyl)benzylcarbamoyl)cyclohexyl)benzamide], the inhibition at 10 µM amounted to 18.7% and the inhibition at 30 µM amounted to 56.4%.

The IC50 is the midpoint of a concentration-inhibition curve.
